Consider two molecules from patent publication US20230278954A1, “BRANCHED LIPID COMPOUDS” (priority 2020, published 2023).

Data set [1] can be described thus: Stability IV: accelerated storage stability over 28 days, UHPLC. It is filed as physicochemical. Conditions: 40° C./75% RH. As to the method: Each compound was formulated in 0.9% w/w saline with addition of 0.1% w/w EDTA at about pH 5. The formulations were stored in the dark under accelerated conditions (40° C./75% RH) and reference formulations were stored at -80° C. At days 0, 9 and 28, samples were analysed by UHPLC and pH was measured.
Approximately 1.5 mg of each compound was weighed into glass HPLC vials and 1.5 mL of saline/EDTA formulation adjusted to pH 5.0 was added. The vials were vortex mixed then warmed under running hot water until full dissolution was observed.
4 × 100 uL aliquots of each solution were transferred to Agilent polypropylene 200 µL HPLC vials for storage under accelerated and reference conditions (two aliquots at each condition). These vials were removed at each time point for HPLC analysis. The frozen reference solutions at Day 9 and Day 28 were gently warmed under running hot water followed by vortex mixing for ~ 10 sec and sonication for 10 min to encourage complete dissolution. […]
Compounds B4 and B12 were analysed according to Gradient 2: […]
UHPLC results were analysed in a similarly to that described in Example 8. […]
Percentage recovery of main peak area is calculated according to the following equation (1): […]

The nature of data set [2]: Stability III: accelerated aging at 40° C., 3 or 6 weeks, HPLC recovery. It is filed as physicochemical. The method, then: Recovery of the target compound was assessed by HPLC, and the values as a percentage of the reference sample are reported in Table 14 and in FIG. 5.
Another data set has as its target T1, human TLR2 (Homo sapiens, UniProt O60603).
T1 construct: expressed in transfected cells; host or cells: HEK-Blue hTLR2 cells
Briefly: Activation of human TLR2 IV: HEK-BLUE-hTLR2 assay. It is filed as cell-based. Conditions: HEK-BLUE-hTLR2 cells, FIG. 4. As to the method: HEK-BLUE-hTLR2 cells are designed for studying the stimulation of human TLR2 (hTLR2) by monitoring the activation of NF-kB. HEK-BLUE-hTLR2 cells are obtained by co-transfection of the hTLR2 and SEAP (secreted embryonic alkaline phosphatase) reporter genes into HEK293 cells. Stimulation with a TLR2 ligand activates NF-kB which induces the production of SEAP. HEK-BLUE-hTLR2 cells were purchased from InvivoGen (San Diego, CA, USA). […] xii) Add immediately […] of the cell suspension per well of the plate which contains the solution of the compounds. The plate is then returned to the incubator at 37° C. for 16 hr and was read at 620 nm by using an ELISA reader.

T1 sequence (O60603 21-784): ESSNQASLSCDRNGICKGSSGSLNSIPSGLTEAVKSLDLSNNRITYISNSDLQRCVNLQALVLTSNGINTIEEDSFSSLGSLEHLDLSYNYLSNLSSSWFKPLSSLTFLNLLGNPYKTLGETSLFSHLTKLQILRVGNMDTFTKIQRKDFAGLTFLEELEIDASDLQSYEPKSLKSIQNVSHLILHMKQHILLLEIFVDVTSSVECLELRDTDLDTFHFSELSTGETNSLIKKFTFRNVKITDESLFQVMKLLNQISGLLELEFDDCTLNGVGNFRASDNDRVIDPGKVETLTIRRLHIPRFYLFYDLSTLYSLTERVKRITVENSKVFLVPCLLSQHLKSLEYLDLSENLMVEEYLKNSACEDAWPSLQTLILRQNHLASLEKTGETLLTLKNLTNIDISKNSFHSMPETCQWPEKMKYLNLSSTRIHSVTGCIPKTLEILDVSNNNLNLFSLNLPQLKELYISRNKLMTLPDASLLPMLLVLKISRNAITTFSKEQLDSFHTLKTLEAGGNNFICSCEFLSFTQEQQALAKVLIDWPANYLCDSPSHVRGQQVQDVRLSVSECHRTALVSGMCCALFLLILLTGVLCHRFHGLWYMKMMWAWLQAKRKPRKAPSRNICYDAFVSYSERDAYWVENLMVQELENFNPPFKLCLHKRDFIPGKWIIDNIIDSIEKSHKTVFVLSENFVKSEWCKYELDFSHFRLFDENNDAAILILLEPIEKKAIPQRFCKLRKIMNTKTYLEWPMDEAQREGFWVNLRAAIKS
T1 sequence (Q9Y2C9 32-796 partner): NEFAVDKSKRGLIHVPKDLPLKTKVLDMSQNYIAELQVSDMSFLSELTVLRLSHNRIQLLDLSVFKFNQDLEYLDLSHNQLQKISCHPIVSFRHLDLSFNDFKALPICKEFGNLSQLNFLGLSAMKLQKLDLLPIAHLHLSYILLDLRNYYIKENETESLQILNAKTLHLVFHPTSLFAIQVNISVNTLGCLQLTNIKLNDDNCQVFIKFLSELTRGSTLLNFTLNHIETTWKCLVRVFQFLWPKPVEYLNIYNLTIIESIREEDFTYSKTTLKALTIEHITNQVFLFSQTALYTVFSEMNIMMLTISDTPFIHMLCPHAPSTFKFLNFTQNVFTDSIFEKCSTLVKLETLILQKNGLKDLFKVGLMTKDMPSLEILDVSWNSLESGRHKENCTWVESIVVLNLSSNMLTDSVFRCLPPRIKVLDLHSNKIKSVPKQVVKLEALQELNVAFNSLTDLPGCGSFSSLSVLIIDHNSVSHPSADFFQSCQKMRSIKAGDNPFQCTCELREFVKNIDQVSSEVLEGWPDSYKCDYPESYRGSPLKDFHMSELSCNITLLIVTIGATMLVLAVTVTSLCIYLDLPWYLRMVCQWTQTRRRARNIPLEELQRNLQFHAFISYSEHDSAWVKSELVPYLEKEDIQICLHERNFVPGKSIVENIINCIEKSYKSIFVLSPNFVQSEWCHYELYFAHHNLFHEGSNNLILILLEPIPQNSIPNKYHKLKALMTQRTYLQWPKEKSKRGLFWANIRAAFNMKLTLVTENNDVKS

`CCCCCCCCCCCCCCC(C)C(=O)OC[C@H](CSC[C@H](N)C(=O)N[C@@H](CO)C(=O)NCCOCCOCCOCCOCCOCCOCCOCCOCCOCCOCCOCCOCCOCCOCCOCCOCCOCCOCCOCCOCCOCCOCCOCCOCCOCCOCCOCCOCCC(=O)NCC(N)=O)OC(=O)C(C)CCCCCCCCCCCCCC` (stereo partly shown) [Compound B4]: the “storage stability under accelerated conditions (in words)” value in data set [1] is given as “most stable compounds”.

Consider `CCCCCCCCCCCCCCC(C)C(=O)OCC[C@H](CSC[C@H](N)C(=O)N[C@@H](CO)C(=O)NCCOCCOCCOCCOCCOCCOCCOCCOCCOCCOCCOCCOCCOCCOCCOCCOCCOCCOCCOCCOCCOCCOCCOCCOCCOCCOCCOCCOCCC(=O)NCC(N)=O)OC(=O)C(C)CCCCCCCCCCCCCC` (stereo partly shown) [Compound B12], for which the “storage stability under accelerated conditions (in words)” value in data set [1] is “most stable compounds”. Moreover, the “stability under accelerated storage conditions (in words)” value in data set [2] is listed as “excellent stabilities”. In addition, the “activity at TLR2 (in words)” value on human TLR2 is listed as “significant activity”.
